Assays:
[1] = system: MEF-1 mouse embryo fibroblasts; test: Competition for 125I collagenase-3 binding in MEF-1 cells; details: competitor at 200-, 400- and 800-fold excess over 125I mouse collagenase-3; ± S.E.M., triplicate wells
Method: (§1) For all binding experiments, cells were seeded into 2.0 cm^2 wells. After the cells reached approximately 95% confluence, the medium was replaced with fresh medium containing 1 mg/ml BSA and the cells were assayed for binding 4 h later. The cells were first washed with maintenance medium, then incubated in the same medium with 0.01% Tween 80 containing ^125I-rat collagenase-3 or other iodinated ligands at 4° C. for 2 h. Non-specific binding was assessed by adding a 50-100-fold excess of cold ligand to half the wells, while an equivalent volume of buffer was added to the remaining wells. After incubation, the wells were washed three times with ice-cold MEM (0.5 ml). The cells were then lysed with 500 μl of 1 M NaOH and the lysates were counted on a gamma counter. Protein labeling with ^125I was done using the chloramine T method (Greenwood et al., 1963, Biochem. J. 89:114). The proteins had specific activities ranging from 9 to 27 μCi/μg.
(§2) In order to exclude the possibility that the collagenase-3 receptor is the low density lipoprotein receptor-related protein, two cell lines of mouse embryo fibroblasts were used: wild-type (MEF-1) and low density lipoprotein receptor-related protein-null (MEF-2) (both provided by Dr. Joachim Herz). These cells were cultured in Dulbecco's MEM with 10% FBS, 10 units penicillin/ml, 10 μg streptomycin/ml.
(§3) These proteins were used as competitors in a series of binding assays in UMR cells using ^125I mouse collagenase-3. Radioactive labeling and binding assays were performed as in Example 1.
(§4) This region thus appears to be the high-affinity binding domain recognized by the collagenase-3 receptor, and the other two domains (SEQ ID's NO:1 and 3) may be recognized by the lower-affinity low density lipoprotein receptor-related protein or may alternatively stabilize the interaction with the collagenase-3 receptor. To investigate the contribution of each receptor, two mouse embryo fibroblast (MEF) cell lines were utilized. The MEF-1 cell line is known to express both the collagenase-3 receptor and the low density lipoprotein receptor-related protein, while the MEF-2 cell line has been rendered low density lipoprotein receptor-related protein-null. […] This hypothesis is confirmed by the data on Table 4.

[2] = system: UMR 106-01 rat osteosarcoma cells; test: Binding of 125I-labeled proteinases to UMR 106-01 cells; details: for binding to UMR cells (in words): 125I-labeled protein, direct binding; for Specific binding: 125I-labeled ligand 8 nM, means ± SEM for triplicate wells
UMR 106-01 cells [3] = test: Competition for 125I collagenase-3 binding in UMR 106-01 cells; parameters: species or system rat; details: for competition efficiency compared to full-length collagenase-3: 125I mouse collagenase-3; for percent of mouse collagenase-3 binding, UMR-106-01: competitor at 200-, 400- and 800-fold excess over 125I mouse collagenase-3, ± S.E.M., seven pooled experiments; for competition for 125I mouse collagenase-3 binding (in words): compared to full-length MMP-13
Method: as §1, §3

UMR 106-01 cells [4] = test: Internalization assay in UMR 106-01 cells; format: cell-based, rat
Method: Although the low density lipoprotein receptor-related protein is not required for rat collagenase-3 binding to the cell, it might be required for ligand internalization. Therefore, internalization assays were performed with ^125I-rat collagenase-3 using MEF-1 and MEF-2 cells as follows. After binding 125I-rat labeled proteins as above, the cells were washed three times with cold modified Eagle's media (0.5 ml) to remove unbound ligand. The cells were then warmed to 37° C. by the addition of prewarmed modified Eagle's media (0.25 ml), and incubated at 37° C. for selected intervals. At each time point, the media were collected, and the cells were washed once with ice-cold MEM, then incubated with 0.25% Pronase®-E in modified Eagle's media for 15 min at 4° C. to strip cell surface proteins. The cell suspension was then centrifuged, and the radioactivity associated with cell pellets (defining internalized ^125I-proteins) was measured at each time point.
It is known that RAP inhibits internalization of ligands by the low density lipoprotein receptor-related protein (Kounnas et al., 1996, J. Biol. Chem 271:6523). Therefore, internalization assays were performed using ^125I-labeled rat collagenase-3 as a ligand and receptor-associated protein as a competitor. Human receptor-associated protein from the pGEX-receptor-associated protein expression vector (provided by Dr. Joachim Herz, University of Texas Southwestern Medical Center, Dallas, Tex.) was expressed in bacteria and prepared as described in Herz et al., 1991, J. Biol. Chem. 266:21232.
To investigate the mechanism by which RAP regulates internalization of collagenase-3, an experiment was performed where excess unlabeled RAP or rat collagenase-3 was prebound to UMR 106-01 cells. Binding and internalization of ^125I-labeled rat collagenase-3 and RAP were then allowed to proceed.

[5] = system: MEF-2 (LRP null) mouse embryo fibroblasts; test: Competition for 125I collagenase-3 binding in MEF-2 (LRP null) cells; details: for competition for receptor binding in MEF-2 cells (in words): compared to MEF-1 cells; for percent of mouse collagenase-3 binding, MEF-2 (LRP null): competitor at 200-, 400- and 800-fold excess over 125I mouse collagenase-3, ± S.E.M., triplicate wells
Method: as §1, §2, §3, §4

collagenase-3 receptor = target: T1, collagenase-3 receptor (Rattus norvegicus, UniProt Q4TU93); test: Scatchard analysis of 125I-mMMP-13 binding to UMR 106-01 cells, high affinity site
T1 construct: endogenous in cells; host or cells: UMR 106-01 rat osteosarcoma cells
T1 sequence (Q4TU93 31-1480): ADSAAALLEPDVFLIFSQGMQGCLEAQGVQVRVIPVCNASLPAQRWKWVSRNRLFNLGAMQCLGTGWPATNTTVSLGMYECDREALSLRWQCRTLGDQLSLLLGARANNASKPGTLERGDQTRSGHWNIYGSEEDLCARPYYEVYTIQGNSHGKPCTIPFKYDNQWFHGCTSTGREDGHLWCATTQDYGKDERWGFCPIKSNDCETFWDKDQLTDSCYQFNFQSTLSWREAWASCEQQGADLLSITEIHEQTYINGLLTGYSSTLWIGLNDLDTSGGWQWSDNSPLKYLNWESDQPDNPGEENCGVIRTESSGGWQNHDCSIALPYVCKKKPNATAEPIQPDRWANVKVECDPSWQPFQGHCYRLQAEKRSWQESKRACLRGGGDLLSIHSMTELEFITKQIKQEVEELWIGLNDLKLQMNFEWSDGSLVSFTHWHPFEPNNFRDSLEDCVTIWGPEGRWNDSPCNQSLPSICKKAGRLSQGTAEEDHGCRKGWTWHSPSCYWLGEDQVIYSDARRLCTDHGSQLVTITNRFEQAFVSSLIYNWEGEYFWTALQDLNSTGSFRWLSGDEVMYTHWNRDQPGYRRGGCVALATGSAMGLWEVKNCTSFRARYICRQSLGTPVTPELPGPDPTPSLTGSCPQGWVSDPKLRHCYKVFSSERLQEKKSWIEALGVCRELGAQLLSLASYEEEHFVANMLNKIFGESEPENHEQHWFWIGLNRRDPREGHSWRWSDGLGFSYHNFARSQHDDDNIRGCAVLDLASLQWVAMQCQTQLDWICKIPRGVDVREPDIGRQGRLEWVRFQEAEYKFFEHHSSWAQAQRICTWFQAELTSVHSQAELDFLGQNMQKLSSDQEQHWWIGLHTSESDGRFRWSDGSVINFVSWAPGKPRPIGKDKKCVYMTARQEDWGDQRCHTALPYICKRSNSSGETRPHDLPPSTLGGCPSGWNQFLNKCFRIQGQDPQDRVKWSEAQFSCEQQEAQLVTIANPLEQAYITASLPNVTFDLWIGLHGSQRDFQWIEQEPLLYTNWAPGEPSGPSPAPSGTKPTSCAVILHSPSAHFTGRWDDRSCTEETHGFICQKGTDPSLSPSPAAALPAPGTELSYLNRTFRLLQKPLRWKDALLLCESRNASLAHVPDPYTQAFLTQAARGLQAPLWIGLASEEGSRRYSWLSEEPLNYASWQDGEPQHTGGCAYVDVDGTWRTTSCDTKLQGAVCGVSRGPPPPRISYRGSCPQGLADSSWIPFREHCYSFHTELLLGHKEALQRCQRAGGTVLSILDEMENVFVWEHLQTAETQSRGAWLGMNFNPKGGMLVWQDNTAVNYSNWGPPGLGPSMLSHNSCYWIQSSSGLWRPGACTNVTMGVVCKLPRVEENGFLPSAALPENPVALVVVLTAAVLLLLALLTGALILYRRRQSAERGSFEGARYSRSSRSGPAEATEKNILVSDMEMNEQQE
Method: as §1
(§5) The recombinant mouse MMP-13 has essentially equivalent catalytic, kinetic, and binding activity as the rat MMP-13 homolog utilized in Example 1.

[6] = target: T2, low density lipoprotein receptor-related protein (Rattus norvegicus, UniProt G3V928); test: Scatchard analysis of 125I-mMMP-13 binding to UMR 106-01 cells, lower affinity site
T2 construct: endogenous in cells; host or cells: UMR 106-01 rat osteosarcoma cells
Method: as §1, §5

T2 sequence (G3V928 20-3944 limits assumed): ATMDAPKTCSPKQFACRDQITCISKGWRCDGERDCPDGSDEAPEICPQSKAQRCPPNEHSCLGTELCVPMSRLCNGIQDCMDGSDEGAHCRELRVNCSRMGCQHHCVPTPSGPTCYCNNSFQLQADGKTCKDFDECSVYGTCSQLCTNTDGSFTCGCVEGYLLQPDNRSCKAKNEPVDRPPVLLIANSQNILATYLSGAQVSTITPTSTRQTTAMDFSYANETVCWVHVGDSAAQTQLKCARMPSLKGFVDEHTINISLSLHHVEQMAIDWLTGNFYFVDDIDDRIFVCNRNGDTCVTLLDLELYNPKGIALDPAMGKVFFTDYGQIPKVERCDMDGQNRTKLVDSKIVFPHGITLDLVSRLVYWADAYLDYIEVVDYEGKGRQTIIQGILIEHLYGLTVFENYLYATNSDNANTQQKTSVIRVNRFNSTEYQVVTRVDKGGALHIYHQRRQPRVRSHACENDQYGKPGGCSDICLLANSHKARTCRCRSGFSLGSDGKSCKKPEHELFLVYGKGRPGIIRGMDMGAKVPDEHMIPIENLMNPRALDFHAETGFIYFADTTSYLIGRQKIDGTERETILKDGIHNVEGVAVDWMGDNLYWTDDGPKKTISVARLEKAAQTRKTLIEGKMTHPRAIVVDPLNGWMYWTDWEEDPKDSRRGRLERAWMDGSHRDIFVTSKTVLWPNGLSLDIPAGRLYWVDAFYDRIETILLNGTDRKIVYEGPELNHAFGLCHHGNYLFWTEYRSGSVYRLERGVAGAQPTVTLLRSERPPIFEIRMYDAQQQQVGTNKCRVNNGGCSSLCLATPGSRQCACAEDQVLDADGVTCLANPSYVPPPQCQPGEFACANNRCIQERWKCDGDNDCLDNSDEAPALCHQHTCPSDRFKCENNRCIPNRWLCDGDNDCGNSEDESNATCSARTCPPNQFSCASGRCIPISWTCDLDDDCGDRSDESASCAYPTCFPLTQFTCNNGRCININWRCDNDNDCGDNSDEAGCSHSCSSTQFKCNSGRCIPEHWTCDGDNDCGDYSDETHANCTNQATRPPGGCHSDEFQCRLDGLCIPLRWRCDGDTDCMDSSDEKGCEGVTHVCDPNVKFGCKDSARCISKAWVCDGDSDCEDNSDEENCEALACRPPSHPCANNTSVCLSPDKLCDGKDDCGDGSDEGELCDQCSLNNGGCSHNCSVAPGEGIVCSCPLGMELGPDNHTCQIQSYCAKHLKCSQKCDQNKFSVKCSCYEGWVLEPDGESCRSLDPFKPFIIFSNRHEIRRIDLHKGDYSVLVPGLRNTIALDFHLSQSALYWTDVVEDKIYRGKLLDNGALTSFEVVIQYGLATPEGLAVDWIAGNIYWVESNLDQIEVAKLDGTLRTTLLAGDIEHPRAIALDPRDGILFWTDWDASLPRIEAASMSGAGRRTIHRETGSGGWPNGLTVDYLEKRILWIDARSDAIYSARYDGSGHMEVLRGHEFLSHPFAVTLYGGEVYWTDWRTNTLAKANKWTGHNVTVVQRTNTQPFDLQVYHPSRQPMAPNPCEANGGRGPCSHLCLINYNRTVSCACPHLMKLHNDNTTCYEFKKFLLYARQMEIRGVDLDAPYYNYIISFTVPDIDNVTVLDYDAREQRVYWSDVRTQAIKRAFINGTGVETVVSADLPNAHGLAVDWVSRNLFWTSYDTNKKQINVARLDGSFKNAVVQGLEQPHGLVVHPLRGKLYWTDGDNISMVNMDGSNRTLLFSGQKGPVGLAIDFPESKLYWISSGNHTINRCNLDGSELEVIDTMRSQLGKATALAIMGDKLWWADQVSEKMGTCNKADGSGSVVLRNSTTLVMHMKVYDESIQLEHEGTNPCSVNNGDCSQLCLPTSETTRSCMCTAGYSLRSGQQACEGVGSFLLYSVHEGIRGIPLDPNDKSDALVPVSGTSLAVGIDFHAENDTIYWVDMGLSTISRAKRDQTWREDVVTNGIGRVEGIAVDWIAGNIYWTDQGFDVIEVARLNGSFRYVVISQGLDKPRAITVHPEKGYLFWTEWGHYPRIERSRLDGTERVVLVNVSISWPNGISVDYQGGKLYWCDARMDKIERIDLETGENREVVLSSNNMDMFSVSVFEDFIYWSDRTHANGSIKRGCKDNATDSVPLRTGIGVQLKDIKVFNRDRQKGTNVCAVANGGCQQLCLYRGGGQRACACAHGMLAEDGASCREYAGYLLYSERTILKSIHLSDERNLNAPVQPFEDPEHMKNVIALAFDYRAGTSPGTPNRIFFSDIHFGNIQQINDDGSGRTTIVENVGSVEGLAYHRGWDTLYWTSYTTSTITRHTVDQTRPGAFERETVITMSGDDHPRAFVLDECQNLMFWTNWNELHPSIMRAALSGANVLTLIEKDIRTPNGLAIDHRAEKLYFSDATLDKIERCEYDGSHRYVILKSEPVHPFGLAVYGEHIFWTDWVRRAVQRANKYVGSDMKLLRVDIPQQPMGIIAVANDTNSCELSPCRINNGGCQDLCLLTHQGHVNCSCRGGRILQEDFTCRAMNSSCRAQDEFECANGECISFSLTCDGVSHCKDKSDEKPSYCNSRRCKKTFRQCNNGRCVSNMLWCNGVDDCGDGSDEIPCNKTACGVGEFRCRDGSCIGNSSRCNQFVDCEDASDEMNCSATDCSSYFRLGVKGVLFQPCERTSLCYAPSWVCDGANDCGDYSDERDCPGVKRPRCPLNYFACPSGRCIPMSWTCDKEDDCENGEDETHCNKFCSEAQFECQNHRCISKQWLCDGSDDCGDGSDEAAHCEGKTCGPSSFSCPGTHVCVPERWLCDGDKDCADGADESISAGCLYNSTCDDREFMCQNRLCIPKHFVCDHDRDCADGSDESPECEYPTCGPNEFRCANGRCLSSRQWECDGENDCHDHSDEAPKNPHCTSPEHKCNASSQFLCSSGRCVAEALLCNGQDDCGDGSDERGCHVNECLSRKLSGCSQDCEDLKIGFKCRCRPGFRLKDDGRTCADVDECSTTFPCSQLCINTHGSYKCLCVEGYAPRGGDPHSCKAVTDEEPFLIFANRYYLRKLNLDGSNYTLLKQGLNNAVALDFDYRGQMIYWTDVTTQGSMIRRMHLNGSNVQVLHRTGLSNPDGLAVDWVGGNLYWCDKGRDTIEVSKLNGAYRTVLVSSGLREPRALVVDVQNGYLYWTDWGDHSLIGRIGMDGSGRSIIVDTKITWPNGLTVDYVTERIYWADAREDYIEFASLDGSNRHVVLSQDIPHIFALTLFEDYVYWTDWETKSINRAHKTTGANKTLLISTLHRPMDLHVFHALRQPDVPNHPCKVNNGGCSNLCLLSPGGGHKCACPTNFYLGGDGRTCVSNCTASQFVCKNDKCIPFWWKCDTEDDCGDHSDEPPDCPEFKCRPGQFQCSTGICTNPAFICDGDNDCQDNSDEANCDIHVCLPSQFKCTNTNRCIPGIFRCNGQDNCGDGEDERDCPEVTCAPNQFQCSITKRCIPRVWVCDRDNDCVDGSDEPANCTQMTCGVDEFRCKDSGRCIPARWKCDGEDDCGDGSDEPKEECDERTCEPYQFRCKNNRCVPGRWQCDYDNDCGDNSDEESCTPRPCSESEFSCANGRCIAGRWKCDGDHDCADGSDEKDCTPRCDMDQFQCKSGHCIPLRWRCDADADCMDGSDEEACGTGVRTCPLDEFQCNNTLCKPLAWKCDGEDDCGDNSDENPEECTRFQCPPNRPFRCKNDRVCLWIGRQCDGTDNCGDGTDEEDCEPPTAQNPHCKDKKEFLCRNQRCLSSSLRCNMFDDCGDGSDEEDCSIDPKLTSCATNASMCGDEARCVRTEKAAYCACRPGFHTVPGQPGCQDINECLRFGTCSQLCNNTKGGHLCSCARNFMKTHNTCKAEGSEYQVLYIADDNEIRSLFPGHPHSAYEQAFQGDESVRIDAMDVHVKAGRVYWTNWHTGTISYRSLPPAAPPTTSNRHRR
T2 sequence (G3V928 3945-4545 partner limits assumed): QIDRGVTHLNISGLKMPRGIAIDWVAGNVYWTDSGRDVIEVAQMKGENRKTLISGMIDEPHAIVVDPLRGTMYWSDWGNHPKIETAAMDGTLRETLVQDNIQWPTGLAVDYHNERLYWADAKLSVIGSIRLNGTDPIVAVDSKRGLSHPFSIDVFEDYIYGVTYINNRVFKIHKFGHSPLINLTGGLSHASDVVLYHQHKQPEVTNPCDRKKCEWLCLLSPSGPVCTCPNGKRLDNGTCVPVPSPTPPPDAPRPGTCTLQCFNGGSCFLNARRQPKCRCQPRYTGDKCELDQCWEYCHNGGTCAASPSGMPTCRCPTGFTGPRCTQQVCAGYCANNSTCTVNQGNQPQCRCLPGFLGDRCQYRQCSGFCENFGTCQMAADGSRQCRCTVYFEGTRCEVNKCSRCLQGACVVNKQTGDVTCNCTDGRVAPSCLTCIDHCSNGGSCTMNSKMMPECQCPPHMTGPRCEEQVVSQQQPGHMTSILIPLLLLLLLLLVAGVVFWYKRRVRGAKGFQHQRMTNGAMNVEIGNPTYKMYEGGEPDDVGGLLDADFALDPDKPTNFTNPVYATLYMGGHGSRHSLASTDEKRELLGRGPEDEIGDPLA

Substance	percent of mouse collagenase-3 binding, MEF 1 [1] [%]	binding to UMR cells (in words) [2]	competition efficiency compared to full-length collagenase-3 (UMR 106-01 cells [3])	percent of mouse collagenase-3 binding, UMR-106-01 (UMR 106-01 cells [3]) [%]	percent of mouse collagenase-3 binding, MEF-2 (LRP null) [5] [%]	also measured
M (1-228)/H: chimeric collagenase: mouse MMP-13 residues 1-228, remainder human MMP-1	85.9 ± 10.5	capable of binding specifically to UMR cells	greater than 90%	85.3 ± 3.0	41.9 ± 9.7	endocytosis of iodinated construct compared to full-length collagenase-3 (in words) (UMR 106-01 cells [4]): significantly reduced endocytosis; competition for receptor binding in MEF-2 cells (in words) [5]: impaired binding in MEF-2 cells
H/M (229-472): chimeric collagenase: human MMP-1 N-terminus, mouse MMP-13 residues 229-472	2.2 ± 1.1	–	< 17%	16.5 ± 5.8	–	–
HM (141-228)/H: chimeric collagenase: mouse MMP-13 residues 141-228 in human MMP-1	94.3 ± 4.7	capable of binding specifically to UMR cells	90%	89.9 ± 5.3	75.1 ± 13.7	endocytosis of iodinated construct compared to full-length collagenase-3 (in words) (UMR 106-01 cells [4]): significantly reduced endocytosis
MMP-13 (1-472): recombinant full-length mouse collagenase-3, residues 1-472	–	binds equally as well as the rat enzyme	–	–	–	Bmax, high affinity site (collagenase-3 receptor; Scatchard analysis): 73.9 pmol/10^5 cells; Bmax, high affinity site (collagenase-3 receptor; computer analysis with the GraphPad InPlot program): 75 pmol/10^5 cells; binding to UMR cells (in words) ([2]; listed as mMMP-13): specifically and saturably; Bmax, lower affinity site ([6]; Scatchard analysis): 660 pmol/10^5 cells; Bmax, lower affinity site ([6]; computer analysis): 834 pmol/10^5 cells
MMP-13 (1-265): C-terminally truncated mouse collagenase-3	100	–	–	100	–	competition for 125I mouse collagenase-3 binding (in words) (UMR 106-01 cells [3]): essentially equivalent manner compared to full-length MMP-13
HM/M (141-472): chimeric collagenase: human MMP-1 N-terminus, mouse MMP-13 residues 141-472	84.4 ± 6.1	–	–	95.7 ± 3.9	–	competition for receptor binding in MEF-2 cells (in words) [5]: significantly impaired ability to compete for receptor binding
Human MMP-1: human fibroblast collagenase-1 (interstitial collagenase)	–	–	–	0	–	Specific binding [2]: 0.1 ± 1.4 fmol/2.6 × 10^5 cells
Human MMP-3: human stromelysin-1 (MMP-3)	–	–	–	–	–	Specific binding [2]: 0.0 ± 0.0 fmol/2.6 × 10^5 cells
HM (166-228)/H: chimeric collagenase: mouse MMP-13 residues 166-228 in human MMP-1	80.8 ± 6.0	–	–	67.8 ± 3.4	97.2 ± 1.7	competition for 125I mouse collagenase-3 binding (in words) (UMR 106-01 cells [3]): impaired ability to compete for receptor binding

From patent publication US6403637B1, “Methods of modulating matrix metalloproteinase activity and uses thereof” (priority 1999, dated 2002)
